This is an account of results in PubChem BioAssay AID248 (DTP/NCI, 2004).

SMILES strings stand for the structures. “And” between values parts separate entries of the source, which are not always exact repeats. Identical values can stand only once. Toxic doses and inconclusive results are not listed. Peptide text beside a SMILES is read from it. * marks the point of attachment. Cbz = O=C(OCc1ccccc1)*

The subject of the assay is L1210 leukemia ip in BDF1 mice, survival T/C. Put plainly: NCI In Vivo Anticancer Drug Screen. Data for tumor model L1210 Leukemia (intraperitoneal) in B6D2F1 (BDF1) mice. The settings on record: endpoint: mean survival time, higher = longer survival. Summed up: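 Transplanted-tumor mice were given test agent; controls received vehicle only. Survival readings from the two groups were divided (treated over control).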

Setting [1] is: dose: 100.0 mg/kg/injection, schedule: Q01DX009 (ip), vehicle: Klucel (hydroxypropylcellulose) (HPC).
Where [2] appears, read: dose: 100.0 mg/kg/injection, schedule: Q04DX003 (ip), vehicle: Klucel (hydroxypropylcellulose) (HPC).
[3] abbreviates: dose: 200.0 mg/kg/injection, schedule: Q01DX009 (ip), vehicle: Klucel (hydroxypropylcellulose) (HPC).
Where [4] appears, read: dose: 200.0 mg/kg/injection, schedule: Q04DX003 (ip), vehicle: Klucel (hydroxypropylcellulose) (HPC).
[5] abbreviates: dose: 400.0 mg/kg/injection, schedule: Q04DX003 (ip), vehicle: Klucel (hydroxypropylcellulose) (HPC).
Where [6] appears, read: dose: 100.0 mg/kg/injection, schedule: Q01DX001 (ip), vehicle: Klucel (hydroxypropylcellulose) (HPC).
Where [7] appears, read: dose: 200.0 mg/kg/injection, schedule: Q01DX001 (ip), vehicle: Klucel (hydroxypropylcellulose) (HPC).
Where [8] appears, read: dose: 400.0 mg/kg/injection, schedule: Q01DX001 (ip), vehicle: Klucel (hydroxypropylcellulose) (HPC).
Setting [9] is: dose: 400.0 mg/kg/injection, schedule: Q01DX009 (ip), vehicle: Klucel (hydroxypropylcellulose) (HPC).

`COC(=O)NS(=O)(=O)C=C(c1ccccc1)c1ccccc1`: the T/C is 106 % of control under setting [1]; 96 % of control under setting [2]; 106 % of control under setting [3]; 108 % of control under setting [4]; 86 % of control under setting [5].

Consider `CCCCC(CCC)(CCC)CCN`, for which the T/C (dose: 2.0 mg/kg/injection, schedule: Q01DX001 (ip), vehicle: carboxymethylcellulose (CMC)) was 98 % of control; the T/C (dose: 2.5 mg/kg/injection, schedule: Q01DX015 (ip), vehicle: carboxymethylcellulose (CMC)) is 89 % of control; the T/C (dose: 4.0 mg/kg/injection, schedule: Q01DX001 (ip), vehicle: carboxymethylcellulose (CMC)) was 103 % of control; the T/C (dose: 5.0 mg/kg/injection, schedule: Q01DX015 (ip), vehicle: carboxymethylcellulose (CMC)) was 94 % of control; the T/C (dose: 8.0 mg/kg/injection, schedule: Q01DX001 (ip), vehicle: carboxymethylcellulose (CMC)) was 108 % of control; the T/C (dose: 10.0 mg/kg/injection, schedule: Q01DX015 (ip), vehicle: carboxymethylcellulose (CMC)) was 93 % of control. For the same molecule, the T/C (dose: 16.0 mg/kg/injection, schedule: Q01DX001 (ip), vehicle: carboxymethylcellulose (CMC)) was 90 % of control.

With `CCC1=C/C(=C/c2cccc(OC)c2O)C(=O)S1`, the T/C (dose: 100.0 mg/kg/injection, schedule: Q01DX001 (ip), vehicle: saline with Tween-80) was 97 % of control; the T/C (dose: 200.0 mg/kg/injection, schedule: Q01DX001 (ip), vehicle: saline with Tween-80) is 97 % of control; the T/C (dose: 400.0 mg/kg/injection, schedule: Q01DX001 (ip), vehicle: saline with Tween-80) was 87 % of control.

`OC(C1CCCCN1)C12CC3CC(CC(C3)C1)C2` (configuration not stated): the T/C reads like this: (dose: 50.0 mg/kg/injection, schedule: Q01DX009 (ip), vehicle: saline with Tween-80) 104 % of control; (dose: 100.0 mg/kg/injection, schedule: Q01DX009 (ip), vehicle: saline with Tween-80) 98 % of control; (dose: 100.0 mg/kg/injection, schedule: Q04DX003 (ip), vehicle: saline with Tween-80) 105 % of control; (dose: 200.0 mg/kg/injection, schedule: Q04DX003 (ip), vehicle: saline with Tween-80) 95 % of control.

`CNC(=O)NCC1OC(n2cnc3c(N)ncnc32)C(O)C1O` (configuration not stated): the T/C by setting is: under setting [6], 98 % of control; under setting [7], 98 % of control; under setting [8], 95 % of control.

`CCOC(=O)CNC(=O)C(CC(C)C)NC(=O)C1CCCN1C(=O)OCc1ccccc1` (stereo not drawn) (Cbz-Pro-Leu-Gly-OEt; configuration not given here): the T/C by setting is: under setting [1], 105 % of control; under setting [2], 107 % of control; under setting [3], 89 % of control; under setting [4], 93 % of control; under setting [9], 110 % of control; under setting [5], 98 % of control.

In the case of `O=c1cc(CO)[nH]cc1O`, the T/C was 102 % of control (dose: 25.0 mg/kg/injection, schedule: Q01DX Z (ip), vehicle: methylcellulose (MC)); 103 % of control (dose: 50.0 mg/kg/injection, schedule: Q01DX015 (ip), vehicle: carboxymethylcellulose (CMC)); 96 % of control (dose: 50.0 mg/kg/injection, schedule: Q01DX Z (ip), vehicle: methylcellulose (MC)); 115 % of control (dose: 62.5 mg/kg/injection, schedule: Q01DX015 (ip), vehicle: saline); 98 % of control and 112 % of control (dose: 78.0 mg/kg/injection, schedule: Q01DX Z (ip), vehicle: carboxymethylcellulose (CMC)); 96 % of control and 114 % of control (dose: 78.0 mg/kg/injection, schedule: Q01DX Z (ip), vehicle: saline). The T/C reads like this: under setting [6], 106 % of control; under setting [1], 110 % of control and 121 % of control; (dose: 100.0 mg/kg/injection, schedule: Q01DX009 (ip), vehicle: saline) 121 % of control; (dose: 100.0 mg/kg/injection, schedule: Q01DX015 (ip), vehicle: carboxymethylcellulose (CMC)) 108 % of control; (dose: 100.0 mg/kg/injection, schedule: Q01DX Z (ip), vehicle: methylcellulose (MC)) 101 % of control; under setting [2], 110 % of control. In addition, the T/C reads like this: (dose: 100.0 mg/kg/injection, schedule: Q04DX003 (ip), vehicle: saline) 106 % of control; (dose: 117.0 mg/kg/injection, schedule: Q01DX Z (ip), vehicle: carboxymethylcellulose (CMC)) 104 % of control and 121 % of control; (dose: 117.0 mg/kg/injection, schedule: Q01DX Z (ip), vehicle: methylcellulose (MC)) 110 % of control; (dose: 117.0 mg/kg/injection, schedule: Q01DX Z (ip), vehicle: saline) 110 % of control and 120 % of control; (dose: 125.0 mg/kg/injection, schedule: Q01DX001 (ip), vehicle: carboxymethylcellulose (CMC)) 104 % of control and 106 % of control; (dose: 125.0 mg/kg/injection, schedule: Q01DX015 (ip), vehicle: saline) 113 % of control. The T/C is 100 % of control (dose: 125.0 mg/kg/injection, schedule: Q## X001 (ip), vehicle: carboxymethylcellulose (CMC)); 109 % of control (dose: 175.0 mg/kg/injection, schedule: Q01DX Z (ip), vehicle: carboxymethylcellulose (CMC)); 96 % of control (dose: 175.0 mg/kg/injection, schedule: Q01DX Z (ip), vehicle: methylcellulose (MC)); 113 % of control (dose: 175.0 mg/kg/injection, schedule: Q01DX Z (ip), vehicle: saline); 121 % of control (dose: 177.0 mg/kg/injection, schedule: Q01DX009 (ip), vehicle: Klucel (hydroxypropylcellulose) (HPC)); 110 % of control under setting [7]. The T/C is, setting by setting: under setting [3], 151 % of control; under setting [4], 122 % of control; (dose: 200.0 mg/kg/injection, schedule: Q04DX003 (ip), vehicle: saline) 115 % of control; (dose: 250.0 mg/kg/injection, schedule: Q01DX001 (ip), vehicle: carboxymethylcellulose (CMC)) 97 % of control and 101 % of control; (dose: 250.0 mg/kg/injection, schedule: Q01DX015 (ip), vehicle: saline) 159 % of control; (dose: 250.0 mg/kg/injection, schedule: Q## X001 (ip), vehicle: carboxymethylcellulose (CMC)) 106 % of control. Further, the T/C by setting is: (dose: 263.0 mg/kg/injection, schedule: Q01DX Z (ip), vehicle: carboxymethylcellulose (CMC)) 124 % of control; (dose: 263.0 mg/kg/injection, schedule: Q01DX Z (ip), vehicle: methylcellulose (MC)) 110 % of control; (dose: 264.0 mg/kg/injection, schedule: Q01DX008 (ip), vehicle: saline) 106 % of control; (dose: 264.0 mg/kg/injection, schedule: Q01DX009 (ip), vehicle: saline) 101 % of control; (dose: 393.0 mg/kg/injection, schedule: Q01DX Z (ip), vehicle: methylcellulose (MC)) 116 % of control; under setting [8], 112 % of control. Further, the T/C (dose: 400.0 mg/kg/injection, schedule: Q01DX008 (ip), vehicle: saline) was 116 % of control; the T/C under setting [9] was 156 % of control; the T/C under setting [5] was 122 % of control; the T/C (dose: 400.0 mg/kg/injection, schedule: Q04DX003 (ip), vehicle: saline) was 112 % of control; the T/C (dose: 500.0 mg/kg/injection, schedule: Q01DX001 (ip), vehicle: carboxymethylcellulose (CMC)) was 95 % of control and 111 % of control; the T/C (dose: 500.0 mg/kg/injection, schedule: Q01DX015 (ip), vehicle: saline) is 165 % of control. The T/C is, setting by setting: (dose: 500.0 mg/kg/injection, schedule: Q01DX Z (ip), vehicle: methylcellulose (MC)) 106 % of control; (dose: 500.0 mg/kg/injection, schedule: Q## X001 (ip), vehicle: carboxymethylcellulose (CMC)) 101 % of control; (dose: 590.0 mg/kg/injection, schedule: Q01DX Z (ip), vehicle: carboxymethylcellulose (CMC)) 105 % of control; (dose: 625.0 mg/kg/injection, schedule: Q01DX Z (ip), vehicle: methylcellulose (MC)) 108 % of control; (dose: 750.0 mg/kg/injection, schedule: Q01DX Z (ip), vehicle: methylcellulose (MC)) 120 % of control; (dose: 1000.0 mg/kg/injection, schedule: Q01DX001 (ip), vehicle: carboxymethylcellulose (CMC)) 102 % of control and 105 % of control. For the setting “dose: 1000.0 mg/kg/injection, schedule: Q## X001 (ip), vehicle: carboxymethylcellulose (CMC)”, the T/C was 108 % of control.
